Test results: US20100316989A1, “METHOD FOR SCREENING AN […] OF HBV PROLIFERATION BY USING THE INTERACTION BETWEEN HBV CAPSID AND SURFACE PROTEINS BASED ON CELLULAR IMAGING” (KOREA INSTITUTE OF SCIENCE AND TECHNOLOGY, priority 2007, published 2010)

How the values were obtained:
[1] = test system: interaction between PreS and capsid protein (PreS-PH / Capsid-GFP) in HEK293T cells; type: cell-based; details: 50 μM peptide; transfected HEK293T cells; FIG. 6
[2] = target: interaction between capsid protein and PreS protein (Hepatitis B virus genotype D subtype ayw, UniProt P03146, F97I/I116L/INS152DR/S87N/V74N); details: serially diluted peptide; Trx-PreS fixed on plate, purified capsid protein; FIG. 5

## RQPTPISPPLRDSHPQAMQWNS (deleted L4b peptide) [PreS derived peptide]
[1]
  location of GFP fluorescence image of Capsid-GFP fusion protein (inhibition of interaction): located not in cell membrane but in cytoplasm of cells
[2]
  inhibition of the interaction between capsid protein and PreS protein (OD490): inhibited the interaction between capsid protein and PreS protein dose-dependently
